Data as given in PMC8002351, “Triterpenes and Phenolic Compounds from the Fungus Fuscoporia torulosa: Isolation, Structure Determination and Biological Activity” (Molecules, 2021).
Each block holds one compound with its values, some of them ahead of it.

Experiments:
[1] = tested on: Colo 205; test: Assay for cytotoxic effect (MTT); type: cell-based, human; settings: for IC50: sensitive Colo 205 cells, MTT, 24 h; for cytotoxic effect (in words): Colo 205, applied concentration up to 100 μM
Method: (§1) The human colon adenocarcinoma cell lines, the Colo 205 (ATCC-CCL-222) doxorubicin-sensitive parent and Colo 320/MDR-LRP (ATCC-CCL-220.1) resistant to anticancer agents expressing ABCB1, were purchased from LGC Promochem (Teddington, UK). The cells were cultured in RPMI-1640 medium supplemented with 10% heat-inactivated fetal bovine serum (FBS), 2 mM L-glutamine, 1 mM Na-pyruvate, 100 mM Hepes, nystatin, and a penicillin–streptomycin mixture in concentrations of 100 U/L and 10 mg/L, respectively. The MRC-5 (ATCC CCL-171) human embryonic lung fibroblast cell line (LGC Promochem) was cultured in EMEM medium, supplemented with 1% nonessential amino acid (NEAA) mixture, 10% heat-inactivated FBS, 2 mM L-glutamine, 1 mM Na-pyruvate, nystatin, and a penicillin–streptomycin mixture in concentrations of 100 U/L and 10 mg/L, respectively. The cell lines were incubated in a humidified atmosphere (5% CO2, 95% air) at 37 °C.
(§2) The effects of increasing concentrations of the compounds on cell growth were tested in 96-well flat-bottomed microtiter plates. The two-fold serial dilutions of the tested compounds were made starting with 100 μM. Then, 10^4 of human colonic adenocarcinoma cells in 100 μL of the medium (RPMI-1640) were added to each well, except for the medium control wells. The adherent human embryonic lung fibroblast cell line (10^4/well) was seeded in EMEM medium in 96-well flat-bottomed microtiter plates for 4 h before the assay. The serial dilutions of the compounds were made in a separate plate starting with 100 μM, and then transferred to the plates containing the adherent corresponding cell line. Culture plates were incubated at 37 °C for 24 h; at the end of the incubation period, 20 μL of MTT (thiazolyl blue tetrazolium bromide) solution (from a 5 mg/mL stock solution) were added to each well. After incubation at 37 °C for 4 h, 100 μL of sodium dodecyl sulfate (SDS) solution (10% SDS in 0.01 M HCl) were added to each well and the plates were further incubated at 37 °C overnight. Cell growth was determined by measuring the optical density (OD) at 540 nm (ref. 630 nm) with a Multiscan EX ELISA reader (Thermo Labsystems, Cheshire, WA, USA). Inhibition of cell growth was expressed as IC50 values, defined as the inhibitory dose that reduces the growth of the cells exposed to the tested compounds by 50%. IC50 values and the SD of triplicate experiments were calculated using GraphPad Prism software version 5.00 for Windows with nonlinear regression curve fit (GraphPad Software, San Diego, CA, USA; www.graphpad.com). The statistical analysis of data was performed using GraphPad Prism software version 5.00, applying the two-tailed t-test.

[2] = tested on: Colo 320; test: Assay for cytotoxic effect (MTT); type: cell-based, human; settings: for IC50: resistant Colo 320 cells, MTT, 24 h; for cytotoxic effect (in words): Colo 320, applied concentration up to 100 μM
Method: as §1, §2

[3] = tested on: MRC-5; test: Assay for cytotoxic effect (MTT); type: cell-based, human; settings: for IC50: normal MRC-5 embryonal fibroblast cells, MTT, 24 h; for cytotoxic effect (in words): MRC-5, applied concentration up to 100 μM
Method: as §1, §2

[4] = tested on: Colo 320; test: Checkerboard combination assay with doxorubicin; type: cell-based, human; settings: for Fraction affected: Colo 320; for Dm (median-effect dose) in the combination: FuTo III:Doxo ratio 11:1, dose of the named component; for Dm (median-effect dose) in the combination / Dm (median-effect dose), drug alone: Colo 320, 72 h; for Dm (median-effect dose), drug alone: single drug, CompuSyn
Method: A checkerboard microplate method was applied to study the effect of drug interactions between the compound 8 and the chemotherapeutic drug doxorubicin. The assay was carried out on Colo 320 colon adenocarcinoma cell line. The final concentration of the compounds and doxorubicin used in the combination experiment was chosen in accordance with their cytotoxicity towards this cell line. The dilutions of doxorubicin were made in a horizontal direction for the 100 μL volume, and the dilutions of the compounds were made vertically in the microtiter plate for the 50 μL volume. Then, 6 × 10^3 of Colo 320 cells in 50 μL of the medium were added to each well, except for the medium control wells. The plates were incubated for 72 h at 37 °C in 5% CO2 atmosphere. The cell growth rate was determined after MTT staining. At the end of the incubation period, 20 μL of MTT solution (from a stock solution of 5 mg/mL) were added to each well. After incubation at 37 °C for 4 h, 100 μL of SDS solution (10% in 0.01 M HCI) were added to each well and the plates were further incubated at 37 °C overnight. OD was measured at 540 nm (ref. 630 nm) with a Multiscan EX ELISA reader. Combination index (CI) values at 50% of the growth inhibition dose (ED50) were determined using CompuSyn software (ComboSyn, Inc., Paramus, NJ, USA) to plot four to five data points at each ratio. CI values were calculated by means of the median-effect equation, according to the Chou–Talalay method, where CI < 1, CI = 1, and CI > 1 represent synergism, additive effect (or no interaction), and antagonism, respectively.

[5] = molecular target: T1, P-glycoprotein (P-gp) (Homo sapiens, UniProt P08183); test: Rhodamine 123 accumulation assay (flow cytometry); type: cell-based; design: key to FAR (fluorescence activity ratio): FAR = (Colo320 treated/control)/(Colo205 treated/control); settings: for FSC / SSC: Colo 320
T1 construct: Colo 320/MDR-LRP (ATCC-CCL-220.1) resistant to anticancer agents expressing ABCB1
Method: The cell numbers of the human colon adenocarcinoma cell lines were adjusted to 2 × 10^6 cells/mL, re-suspended in serum-free RPMI 1640 medium, and distributed in 0.5 mL aliquots into Eppendorf centrifuge tubes. The tested compounds were added at concentrations of 2 or 20 μM, and the samples were incubated for 10 min at room temperature. Tariquidar was applied as positive control at 0.2 μM. DMSO at 2% v/v was used as solvent control. Next, 10 µL (5.2 µM final concentration) of the fluorochrome and ABCB1 substrate rhodamine 123 (Sigma) were added to the samples and the cells were incubated for a further 20 min at 37 °C, washed twice, and re-suspended in 1 mL PBS for analysis. The fluorescence of the cell population was measured with a PartecCyFlow® flow cytometer (Partec, Münster, Germany). The fluorescence activity ratio was calculated as the quotient between the FL-1 of the treated/untreated resistant Colo 320 cell line over the treated/untreated sensitive Colo 205 cell line according to the following equation [31]:(1) FAR = Colo320treated/Colo320control/Colo205treated/Colo205control

[6] = tested on: Escherichia coli ATCC 25922; test: Minimum inhibitory concentration by microdilution method; type: cell-based; settings: ATCC25922, broth dilution, 18 h
[7] = tested on: Salmonella enterica serovar Typhimurium 14028s; test: as above; type: cell-based; settings: broth dilution, 18 h
[8] = tested on: Staphylococcus aureus ATCC 25,923; test: as above; type: cell-based; settings: ATCC25, broth dilution, 18 h
[9] = tested on: S. aureus 27,213 (methicillin and ofloxacin resistant clinical isolate); test: as above; type: cell-based; settings: Staphylococcus aureus; broth dilution, 18 h
[10] = DPPH assay; settings: 30 min; 550 nm
Method: A method based on the description of Miser-Salihoglu E. et al. was applied. The examination was performed on a FLUOstar Optima BMG Labtech plate-reader with 96-well microplates. The samples were measured in a DMSO environment with the volume of 150 µL per sample resulting 1 mg/mL concentration. Every well contained 50 µL (100 µM) of this base solution for the absorbance measurement (30 min; 550 nm). […] For data evaluation GraphPad Prism 6.0 software was utilized. The DPPH (2,2′-diphenyl-1-picrylhydrazyl) reagent necessary for the process was supplied by from Sigma-Aldrich Hungary.

[11] = ORAC assay; settings: Trolox equivalent
Method: A method based on the description of Mielnik et al. was applied. In summary, 20 µL of the samples were used in 0.01 mg/mL concentration with a 96-well black microplate. In each well, 60 µL of AAPH (12 mM final concentration) and 120 µL of fluorescein solution (70 nM final concentration) were added. The fluorescence alteration of each sample was measured for 3 h with 1.5 min cycle intervals by a FLUOstar Optima BMG Labtech plate-reader. Trolox ((±)-6-hydroxy-2,5,7,8-tetramethyl-chromane-2-carboxylic acid) was used as a standard. Both Trolox and AAPH was supplied by Sigma-Aldrich, Hungary, while Fluorescein was provided by Fluka analytical, Japan. For data analysis, the GraphPad Prism 6.0 software was used. The results were expressed as mmol Trolox equivalent per g of dry material (mmloTE/g).

[12] = Fa 0.6829, combination FuTo III + Doxo
[13] = Fa 0.741889, combination FuTo III + Doxo
[14] = Fa 0.80679, combination FuTo III + Doxo
[15] = Fa 0.912987, combination FuTo III + Doxo

T1 sequence (P08183 whole entry): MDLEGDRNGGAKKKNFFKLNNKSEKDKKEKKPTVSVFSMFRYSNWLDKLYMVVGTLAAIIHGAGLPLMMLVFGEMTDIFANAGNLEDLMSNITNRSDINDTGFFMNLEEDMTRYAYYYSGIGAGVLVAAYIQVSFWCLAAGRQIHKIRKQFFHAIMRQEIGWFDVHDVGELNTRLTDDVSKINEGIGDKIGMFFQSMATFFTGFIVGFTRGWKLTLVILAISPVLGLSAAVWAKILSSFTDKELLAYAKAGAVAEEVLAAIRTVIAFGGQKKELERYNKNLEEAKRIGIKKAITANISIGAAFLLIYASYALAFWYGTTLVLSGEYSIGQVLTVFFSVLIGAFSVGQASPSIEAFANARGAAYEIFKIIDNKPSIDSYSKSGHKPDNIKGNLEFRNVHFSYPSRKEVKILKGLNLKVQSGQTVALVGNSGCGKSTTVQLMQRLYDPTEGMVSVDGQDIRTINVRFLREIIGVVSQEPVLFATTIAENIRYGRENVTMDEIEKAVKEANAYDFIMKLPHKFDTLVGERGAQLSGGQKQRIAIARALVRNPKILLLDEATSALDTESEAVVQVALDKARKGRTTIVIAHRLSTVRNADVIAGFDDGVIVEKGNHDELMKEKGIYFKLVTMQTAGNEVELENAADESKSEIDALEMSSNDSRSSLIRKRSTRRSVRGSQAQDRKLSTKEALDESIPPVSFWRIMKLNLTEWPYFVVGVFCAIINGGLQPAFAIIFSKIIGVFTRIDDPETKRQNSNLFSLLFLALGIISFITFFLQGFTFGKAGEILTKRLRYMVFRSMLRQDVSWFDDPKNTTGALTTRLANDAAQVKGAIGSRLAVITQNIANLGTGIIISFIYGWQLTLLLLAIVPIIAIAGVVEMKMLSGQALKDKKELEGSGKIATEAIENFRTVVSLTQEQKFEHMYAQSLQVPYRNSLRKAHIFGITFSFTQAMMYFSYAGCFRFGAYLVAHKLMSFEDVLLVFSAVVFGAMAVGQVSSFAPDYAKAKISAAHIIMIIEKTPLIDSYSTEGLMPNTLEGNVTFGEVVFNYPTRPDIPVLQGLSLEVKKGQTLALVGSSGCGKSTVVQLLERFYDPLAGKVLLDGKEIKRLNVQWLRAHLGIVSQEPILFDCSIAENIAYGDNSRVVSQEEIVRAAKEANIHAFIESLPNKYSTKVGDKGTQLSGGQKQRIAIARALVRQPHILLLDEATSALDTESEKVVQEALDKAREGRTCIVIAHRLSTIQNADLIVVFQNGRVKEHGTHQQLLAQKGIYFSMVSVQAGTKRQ

Compound: ergosta-7,22-diene-3-one [Compound 8]
IC50 [1]: 11.7 ± 1.67 µM
IC50 [2]: 8.43 ± 1.1 µM
IC50 [3]: 7.92 ± 1.42 µM
Dose Reduction Index (DRI) for experimental values [4, 12]: 18.211
Dose Reduction Index (DRI) for experimental values [4, 13]: 10.119
Dose Reduction Index (DRI) for experimental values [4, 14]: 5.811
Dose Reduction Index (DRI) for experimental values [4, 15]: 2.045
Fraction affected ([4]; FuTo III alone 6.25 uM): 0.0295
Fraction affected ([4]; FuTo III alone 12.5 uM): 0.2522
Fraction affected ([4]; FuTo III alone 25 uM): 0.5605
Dm (median-effect dose) in the combination [4]: 0.4671 µM
combination index (CI) at the 50% growth inhibition dose (ED50) ([4]; compound 8 combined with doxorubicin, ratio 11.2:1, Colo 320, 72 h): 0.521 ± 0.15
Dm (median-effect dose), drug alone [4]: 21.37 µM
FSC ([5]; 2 μM): 2099
SSC ([5]; 2 μM): 857
FAR (fluorescence activity ratio) ([5]; 2 μM, Colo 320, rhodamine-123): 0.872
FL-1 (mean fluorescence of the cells) ([5]; 2 μM, Colo 320, rhodamine-123): 10.100

Compound: COc1cccc2c1C(=O)c1c(O)c3c(c(O)c1C2=O)C[C@@](O)(C(=O)CO)C[C@@H]3O[C@H]1C[C@H](N)[C@H](O)[C@H](C)O1 [Doxorubicin, doxorubicin]
IC50 ([1]; Homo sapiens): 2.46 ± 0.26 µM
IC50 ([2]; Homo sapiens): 7.44 ± 0.2 µM
IC50 ([3]; Homo sapiens, MRC5): > 20 µM
Fraction affected ([4]; Doxo alone 0.135 uM): 0.6475
Fraction affected ([4]; Doxo alone 0.269 uM): 0.7257
Fraction affected ([4]; Doxo alone 0.539 uM): 0.8038
Fraction affected ([4]; Doxo alone 1.078 uM): 0.9263
Fraction affected ([4]; Doxo alone 4.311 uM): 0.9749
Dose Reduction Index (DRI) for experimental values [4, 12]: 1.374
Dose Reduction Index (DRI) for experimental values [4, 13]: 0.937
Dose Reduction Index (DRI) for experimental values [4, 14]: 0.702
Dose Reduction Index (DRI) for experimental values [4, 15]: 0.475
Dm (median-effect dose) in the combination [4]: 0.04246 µM
Dm (median-effect dose), drug alone [4]: 0.08504 µM

Compound: CC(C)=CC[C@H](O)[C@@H](C)[C@H]1CC[C@@]2(C)C3=C(CC[C@]12C)[C@@]1(C)CC[C@H](O)[C@@](C)(C(=O)O)[C@@H]1CC3 [Compound 6, senexdiolic acid]
IC50 ([1]; Homo sapiens): > 100 µM
IC50 ([2]; Homo sapiens): > 100 µM
IC50 ([3]; Homo sapiens, MRC5): > 100 µM
FSC ([5]; 20 μM): 2074
SSC ([5]; 20 μM): 861
FAR (fluorescence activity ratio) ([5]; 20 μM, Colo 320, rhodamine-123): 1.027
MIC [6]: > 100 µM
MIC [7]: > 100 µM
MIC [8]: > 100 µM
MIC [9]: > 100 µM

The next lines start with results.

FSC ([5]; 0.2 μM): 1945
SSC ([5]; 0.2 μM): 837
FAR (fluorescence activity ratio) ([5]; 0.2 μM, Colo 320, rhodamine-123): 5.533
Compound: COc1cc2c(cc1OC)CN(CCc1ccc(NC(=O)c3cc(OC)c(OC)cc3NC(=O)c3cnc4ccccc4c3)cc1)CC2 [Tariquidar, reference compound]

FSC ([5]; 20 μM): 2005
SSC ([5]; 20 μM): 851
FAR (fluorescence activity ratio) ([5]; 20 μM, Colo 320, rhodamine-123): 1.139
MIC [6]: > 100 µM
MIC [7]: > 100 µM
MIC [8]: > 100 µM
MIC [9]: > 100 µM
Compound: CC(C)=CC[C@H](O)[C@@H](C)[C@H]1CC[C@@]2(C)C3=C(CC[C@]12C)[C@@]1(C)CC[C@@](C)(C(=O)O)[C@@H]1CC3 [Compound 1, 22S-hydroxy-8,24-dien-3-norlanosta-28-oic acid]
cytotoxic effect (in words) [1]: did not show any significant effect
IC50 ([1]; Homo sapiens): > 100 µM
cytotoxic effect (in words) [2]: did not show any significant effect
IC50 ([2]; Homo sapiens): > 100 µM
IC50 ([3]; Homo sapiens, MRC5): > 100 µM
cytotoxic effect (in words) [3]: did not show any significant effect

DPPH EC50 [10]: 0.89 ± 0.02 µg/mL
Compound: O=C1O[C@H]([C@@H](O)CO)C(O)=C1O [Ascorbic acid, ascorbic acid]
ORAC Activity [11]: 6.94 ± 0.58 mmol TE/g

FSC ([5]; 20 μM): 2095
SSC ([5]; 20 μM): 891
FAR (fluorescence activity ratio) ([5]; 20 μM, Colo 320, rhodamine-123): 1.053
MIC [6]: > 100 µM
MIC [7]: > 100 µM
MIC [8]: > 100 µM
MIC [9]: > 100 µM
Compound: Cc1coc(C(=O)[C@@H](C)[C@H]2CC[C@@]3(C)C4=C(CC[C@]23C)[C@@]2(C)CC[C@@](C)(C(=O)O)[C@@H]2CC4)c1 [Compound 7, natalic acid]
cytotoxic effect (in words) [1]: did not show any significant effect
IC50 ([1]; Homo sapiens): > 100 µM
cytotoxic effect (in words) [2]: did not show any significant effect
IC50 ([2]; Homo sapiens): > 100 µM
IC50 ([3]; Homo sapiens, MRC5): > 100 µM
cytotoxic effect (in words) [3]: did not show any significant effect
